Consider two compounds from patent US20240024494A1, “SMALL-MOLECULE CONJUGATE AND USE THEREOF” (SHANGHAI MEWSGEN BIOTECHNOLOGY CO., LTD, priority 2020, published 2024).

Series [1] deals with SW1990 (human pancreatic carcinoma cells). Put plainly: Tumor cell proliferation inhibition test, CCK-8 method (Example 19). The class given is cell-based. The method, then: (§1) A part of the compounds prepared in the examples of the present disclosure were subjected to a tumor cell proliferation inhibition test by using a CCK-8 method. A cell line HCT116 (human colon carcinoma cells) and SW1990 (human pancreatic carcinoma cells) were purchased from Shanghai Meixuan Technology Co., Ltd. Samples (a part of the compounds prepared in the examples) were dissolved in DMSO (Merck), prepared into a concentration of 10 mM, and finally triply diluted in DMEM or McCoy's 5A 1640 medium to 8 concentration gradients. A cell culture solution was collected when a cell culture met a test requirement, 10 μL of the cell culture solution was uniformly coated on a cell counting plate, cells were counted for 3 times under a microscope, and a cell density was calculated by taking an average value; and a 96-well plate (Corning, #3599) was taken, 200 μL of the cell culture solution was added into each well for cell inoculation at a cell concentration of 6×10^3 cells per well, and the inoculated 96-well plate was incubated in a cell incubator containing 5% CO2 at 37° C. for 24 h. An old culture medium was removed by suction, 200 μL of the triply diluted sample DMEM or McCoy's 5A 1640 medium at an initial concentration of 10 μmol/L was added to each well, the DMSO content was controlled to be 1%, three duplicate wells were set, PBS was used as a blank control, and the plate was incubated in the incubator for 72 h. The original DMEM or McCoy's 5A 1640 medium in the 96-well plate and a PBS buffer in a final row were sucked out, a prepared CCK-8 solution (90% DMEM or McCoy's 5A 1640 medium+10% CCK-8) was added, the mixture was incubated in an incubator, and an absorbance was read by using a Biotek microplate reader. Cell growth inhibition rate IC %=(blank control well OD value−administration well OD value)/blank control well OD value×100%.

Series [2] relates to HCT116 (human colon carcinoma cells). The description is as above. The class given is cell-based. Here is the method: as §1
For series [3], the system named is human gastric carcinoma MGC803. The series can be described thus: In-vivo antitumor activity test in human gastric carcinoma MGC803 (subcutaneous tumor block in nude mice). Details: species or system BALB/C nude mice. The note with it: for RTV (d22) / Body weight of animals (After a tumor is removed) / Tumor inhibition rate %: MGC803; for Body weight of animals (After a tumor is removed) / Tumor inhibition rate %: d22. Here is the method: (§2) Animals: BALB/C nude mice (SPF grade), male, and 18-20 g. The compounds were firstly added with DMSO at a total amount of 4%, then added with Tween-80 at a total amount of 2% for assisting dissolution, then added with PEG300 at a total amount of 5%, and finally added with sterilized normal saline to be prepared into a solution at 1 mg/mL. Idasanutlin was firstly added with DMSO at a total amount of 4%, then added with Tween-80 at a total amount of 2% for assisting dissolution, then added with PEG300 at a total amount of 5%, and finally added with sterilized normal saline to be prepared into a solution at 2.5 mg/mL.
A well-grown human gastric carcinoma MGC803 tumor mass was taken and aseptically cut into uniform small blocks of about 3 mm in size, and a right axilla of each mouse was subcutaneously inoculated with one block through a trocar. […] The animals were regrouped according to a tumor size. The animals with too large and too small tumors were sifted out. An average tumor volume in each group was approximately the same. An administration was started according to the following solution with an administration volume of 0.2 mL/20 g body weight. A long diameter a (mm) of the tumor and a short diameter b (mm) vertical to the tumor were measured by a digital display electronic caliper 2 times a week from day 9 of the inoculation. A tumor volume was calculated by the formula: TV=ab^2/2, and a relative tumor volume was calculated by the formula: RTV=Vt/Vo, wherein Vo was the obtained tumor volume measured at a cage separation (i.e. d1) and Vt was the tumor volume measured at each time. The animals were sacrificed 30 days after the inoculation (d22) and weighed, tumor mass was obtained by dissection and weighed, and the results were determined according to the following formula: […]

Series [4] can be described thus: In-vivo antitumor activity test in human stromal tumor SHG44 (subcutaneous tumor block in nude mice). More on the design: species or system BALB/C nude mice. Conditions: for RTV (d22) / Tumor inhibition rate % / Body weight of animals (After a tumor is removed): SHG44; for Tumor inhibition rate % / Body weight of animals (After a tumor is removed): d22; for Body weight of animals (After a tumor is removed): in g (unit assumed). The method, then: as §2
(§3) A well-grown human stromal tumor SHG44 mass was taken and aseptically cut into uniform small blocks of about 3 mm in size, and a right axilla of each mouse was subcutaneously inoculated with one block through a trocar. […] The animals were regrouped according to a tumor size. The animals with too large and too small tumors were sifted out. An average tumor volume in each group was approximately the same. An administration was started according to the following solution with an administration volume of 0.2 mL/20 g body weight. A long diameter a (mm) of the tumor and a short diameter b (mm) vertical to the tumor were measured by a digital display electronic caliper 2 times a week from day 9 of the inoculation. A tumor volume was calculated by the formula: TV=ab^2/2, and a relative tumor volume was calculated by the formula: RTV=Vt/Vo, wherein Vo was the obtained tumor volume measured at a cage separation (i.e. d1) and Vt was the tumor volume measured at each time. The animals were sacrificed 30 days after the inoculation (d22) and weighed, tumor mass was obtained by dissection and weighed, and the results were determined according to the following formula: […]

The test system of series [5] is human esophageal cancer KYSE-150. Put plainly: In-vivo antitumor activity test in human esophageal cancer KYSE-150 (subcutaneous tumor block in nude mice). Details: species or system BALB/C nude mice. Conditions: for RTV (d22) / Body weight of animals (After a tumor is removed) / Tumor inhibition rate %: KYSE-150; for Body weight of animals (After a tumor is removed) / Tumor inhibition rate %: d22. The method, then: as §2
as §3, with “esophageal cancer KYSE-150” for “stromal”, “tumor” for “tumor SHG44”

Setting [6] is: 10 mg/kg, Ipx5 each week for 2 continuous weeks.

Read-outs that look alike come from different tables or passages of the source.

As to `COc1cc(C(=O)NCCOCCOCCOCCOCCC(=O)N[C@@H](C(=O)N[C@@H](CCCNC(N)=O)C(=O)Nc2ccc(COC(=O)N3CCN(C(=O)O[C@H]4CC[C@@]5(C)[C@H](CC[C@@H]6[C@@H]5[C@H](O)C(=O)[C@]5(C)[C@@H](c7ccc(=O)oc7)CC[C@]65O)C4)CC3)cc2)C(C)C)ccc1NC(=O)[C@@H]1N[C@@H](CC(C)(C)C)[C@](C#N)(c2ccc(Cl)cc2F)[C@H]1c1cccc(Cl)c1F` [Compound I-1], the IC50 in series [1] (72 h) worked out at 7 nM; in series [2] (72 h) it was 34 nM. For the same compound, the “in-vivo antitumor activity of the human gastric carcinoma MGC803 (in words)” value in series [3] was “good in-vivo antitumor activity”. Besides, the “RTV (d22)” value in series [3] (setting [6]) turned out to be 2.45 ± 0.54; in series [4] (setting [6]), 2.34 ± 0.32; in series [5] (setting [6]) it was 4.87 ± 0.92. The entries for the “Body weight of animals (After a tumor is removed)” value in series [3] (setting [6]), in series [4] (setting [6]) and in series [5] (setting [6]) were 26.15 ± 1.14, 24.78 ± 2.38 and 24.51 ± 1.40, respectively. Moreover, the “Tumor inhibition rate %” value is reported as 38.54% in series [3] (setting [6]), 52.03% in series [4] (setting [6]) and 50.45% in series [5] (setting [6]). In addition, in series [4], the “in-vivo antitumor activity of the human stromal tumor SHG44 (in words)” value is “good in-vivo antitumor activity”. Moreover, the “in-vivo antitumor activity of the human esophageal cancer KYSE-150 (in words)” value in series [5] is recorded as “good in-vivo antitumor activity”.
Consider `COc1cc(C(=O)O)ccc1NC(=O)[C@@H]1N[C@@H](CC(C)(C)C)[C@](C#N)(c2ccc(Cl)cc2F)[C@H]1c1cccc(Cl)c1F` [Idasanutlin, reference compound], for which the IC50 is 2980 nM in series [1] (Homo sapiens, SW1990, CCK-8, 72 h, Table 1, read-out: IC50 SW1990) and 1060 nM in series [2] (Homo sapiens, HCT-116, CCK-8, 72 h, Table 1, read-out: IC50 HCT116). Moreover, the “RTV (d22)” value in series [3] (25 mg/kg, Igx14) came to 2.74 ± 0.81; in series [4] (25 mg/kg, Igx14), 2.95 ± 0.41; in series [5] (25 mg/kg, Igx14), 4.79 ± 0.41. The “Body weight of animals (After a tumor is removed)” value is 23.58 ± 1.56 in series [3] (25 mg/kg, Igx14); 24.47 ± 1.66 in series [4] (25 mg/kg, Igx14); 24.03 ± 0.95 in series [5] (25 mg/kg, Igx14). Moreover, the “Tumor inhibition rate %” value is reported as 31.36% in series [3] (25 mg/kg, Igx14); 39.59% in series [4] (25 mg/kg, Igx14); 51.17% in series [5] (25 mg/kg, Igx14).
